Experimental findings from US5962636A, “Peptides capable of modulating inflammatory heart disease” (priority 1998, dated 1999) are described below.

The subject of this data set is Balb/c mice. Nature of the data set: Oligodeoxynucleotides as adjuvants: immunization with M7A-alpha peptide plus oligo; presence and severity of inflammatory heart disease. Type of data set: in vivo. Conditions: for Prevalence / Severity: day 21; for immunostimulatory / adjuvant activity: result in words, with M7A-alpha peptide, in the absence of Freund's complete adjuvant; for Severity: score ± SD, scale as in Example 1, adjuvant given with M7A-alpha peptide.

Where [1] appears, read: adjuvant given with about 50 micrograms M7A-alpha peptide, days 0 and 7, oligos about 10 nmol with Freund's incomplete adjuvant.

In the case of “GTACTGACGTTTACTCTTGG (chemistry not given here) [CpG, oligonucleotide with CpG motif derived from DNA encoding a 60 kDa cysteine rich outer membrane protein from Chlamydia trachomatis]”, the “immunostimulatory / adjuvant activity” value was “potent immunostimulator” and the Severity stood at 1.2 ± 0.4. Further, the Prevalence (about 10 nmol oligo without peptide (Peptide: None)) is listed as 0/5. In addition, the Prevalence under setting [1] is reported as 5/5.

“GTACTGAGCTTTACTCTTGG (chemistry not given here) [non-CpG, counterpart of the CpG oligo not containing the CpG motif, reference compound]”: the “immunostimulatory / adjuvant activity” value was “hardly effective as an adjuvant” and the Severity came out at 1.0 ± 0.0. The Prevalence under setting [1] was 1/5.
